Reference: paper PMC9486168, “Protein-protein interaction-based high throughput screening for adenylyl cyclase 1 inhibitors: Design, implementation, and discovery of a novel chemotype” (Frontiers in Pharmacology, 2022)
“And” between values parts separate entries of the source, which are not always exact repeats. Identical values can stand only once. Counter-ions that a name gives are not always drawn.

Legend:
[1] = biological target: T1, AC1-C1b/CaM (Homo sapiens, UniProt P0DP23); test: AC1-C1b/CaM fluorescence polarization (FP) assay; assay type: binding; settings: for IC50: 100 nM AC1-C1b, 100 nM GST-CaM, 95% CI in brackets; for Ki: Cheng-Prusoff from FP IC50 and Kd; for AC1-CaM FP % inhib: relative to 100 μM CDZ (100% inhibition), highest concentration tested; for inhibition of AC1/CaM in the FP assay after fresh powder stocks were ordered: repurchased powder
T1 construct: made in house; host or cells: E. coli BL21-CodonPlus (DE3)-RIPL

[2] = biological target: T2, AC8-C2b/CaM (Homo sapiens, UniProt P0DP23); test: AC8-C2b/CaM FP counterscreen assay; assay type: binding; settings: for Ki / Ki (μM) AC8 C2b: Cheng-Prusoff from FP IC50 and Kd, n/i given where none; for Ki ratio (AC8-C2b/AC1): ratio >1: more potent in AC1/CaM FP;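 on all read-outs here: fluorescence polarization of AC peptide binding to GST-CaM in HEPES buffer with KCl and 50 µM CaCl2, compound preincubated 30 min with GST-CaM, DMSO and calmidazolium as controls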
T2 construct: made in house; host or cells: E. coli BL21-CodonPlus (DE3)-RIPL

[3] = biological target: T3, AC8/CaM PPI (Homo sapiens, UniProt P0DP23); test: AC8/CaM NanoBiT assay in HEK293T cells; assay type: cell-based, rat; settings: for IC50: HEK293T, thapsigargin-stimulated, AUC, read-out: Nanobit: AC8-CaM IC50 (μM ± SEM)
T3 construct: confirmed as an AC1/AC8 non-selective hit against full-length AC1- and AC8-CaM in the NanoBiT assay; The hCaM residues 1–149, residues 1–1,248 of rat AC8 (rAC8); expressed in transfected cells; host or cells: HEK293T, transient transfection

[4] = biological target: T4, AC8-Nt/CaM (Homo sapiens, UniProt P0DP23); test: AC8-Nt/CaM FP counterscreen assay; assay type: binding; settings: for Ki / Ki (μM) AC8 NT: Cheng-Prusoff from FP IC50 and Kd, n/i given where none; for Ki ratio (AC8 NT/AC1): ratio >1: more potent in AC1/CaM FP;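 on all read-outs here: fluorescence polarization of AC peptide binding GST-CaM in HEPES buffer with CaCl2, compound preincubated with CaM 30 min, peptide read after 2 h at room temperature in dark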
T4 construct: made in house; host or cells: E. coli BL21-CodonPlus (DE3)-RIPL

[5] = biological target: T5, AC1/CaM PPI (Homo sapiens, UniProt P0DP23); test: AC1/CaM NanoBiT assay in HEK293T cells; assay type: cell-based; settings: HEK293T, thapsigargin-stimulated, AUC; for IC50: read-out: Nanobit: AC1-CaM IC50 (μM ± SEM)
T5 construct: human AC1 (hAC1) residues 1–1,118 were cloned; The hCaM residues 1–149, residues 1–1,248 of rat AC8 (rAC8); expressed in transfected cells; host or cells: HEK293T, transient transfection

[6] = CellTiter-Glo 2.0 cell viability assay; assay type: cell-based; settings: human, HEK293T cells, pH 7.4; at the compound's AC1/CaM NanoBiT IC50 concentration; read-out: % Viable Cells at AC1 IC50;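 further: luminescence read-out after 30 min compound exposure at 37 °C in HEPES-buffered HBSS, scaled to vehicle-treated cells as 100% and cell-free buffer wells as 0%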

Row | Compound | IC50 [1] | Ki [2] | IC50 [3] | Ki [4] | IC50 [5] | Ki [1] | Ki ratio (AC8-C2b/AC1) [2] | Ki ratio (AC8 NT/AC1) [4] | AC1-CaM FP % inhib [1] | Ki (μM) AC8 C2b [2] | Ki (μM) AC8 NT [4] | Nanobit: AC1-CaM IC50 (μM ± SEM) [5] | IC90 [1] | viability at 30 min [6] | fold selective for AC8 over AC1 in the NanoBiT assay ([3]; AC8/CaM vs AC1/CaM NanoBiT) | inhibition of AC1/CaM in the FP assay after fresh powder stocks were ordered [1]
1 | Clc1ccc(C(c2ccc(Cl)cc2)n2cc[n+](CC(OCc3ccc(Cl)cc3Cl)c3ccc(Cl)cc3Cl)c2)cc1 (centres unmarked) [CDZ, Calmidazolium] | 15.1 µM and ~15 µM |  |  |  |  |  |  |  |  |  |  |  | ~100 µM |  |  | 
2 | CN(C)c1ccc2nc3ccc(=[N+](C)C)cc-3sc2c1 [Compound 2, Methylene Blue] | 2.18 µM | 0.82 µM | 80.3 ± 1.14 µM | 3.2 µM | 98 ± 1.14 µM | 0.51 µM |  |  |  |  |  |  |  | 86% |  | 
3 | CCCCCCCCCCCCCCCC[N+](C)(C)CCN(Cc1ccc(OC)cc1)c1ncccn1 [Compound 4, Thonzonium] | 4.14 µM | 3.6 µM | 18.5 ± 1.26 µM | 2.7 µM | 29.1 ± 1.2 µM | 1 µM | 3.7 | 2.7 | 94% |  |  |  |  | 100% |  | 
4 | CC1=C(CCC(=O)O)c2cc3[nH]c(cc4nc(cc5[nH]c(cc1n2)c(C)c5C(C)O)C(C)=C4C(C)O)c(C)c3CCC(=O)O (centres unmarked) [Compound 6, Hematoporphyrin] | 14.7 µM | 10.1 µM | 11.6 ± 1.24 µM | 61.7 µM | 38.4 ± 1.17 µM | 3.5 µM | 2.9 | 17.8 | 131% |  |  |  |  | 95% | 2- to 4 fold | 
5 | CCNC(=O)c1cc2c(=O)n(C)c(=O)n(C)c2s1 [Compound 16] | 24.2 µM |  |  |  |  | 5.7 µM | AC1 Selective | AC1 Selective |  | n/i | n/i | No Inhibition |  |  |  | 
6 | CN1CCC[C@H]1c1cccnc1.O=C(O)C(O)C(O)C(=O)O.O=C(O)C(O)C(O)C(=O)O [nicotine ditartrate] |  |  |  |  |  |  |  |  |  |  |  |  |  |  |  | did not exhibit significant inhibition
7 | CCN(C)C(=O)Oc1cccc([C@H](C)N(C)C)c1 [rivastigmine tartrate] |  |  |  |  |  |  |  |  |  |  |  |  |  |  |  | did not exhibit significant inhibition
8 | ethyl quinine |  |  |  |  |  |  |  |  |  |  |  |  |  |  |  | did not exhibit significant inhibition

Second part, led by results:

Row | IC50 [1] | Ki [2] | IC50 [3] | Ki [4] | IC50 [5] | Ki [1] | Ki ratio (AC8-C2b/AC1) [2] | Ki ratio (AC8 NT/AC1) [4] | AC1-CaM FP % inhib [1] | Ki (μM) AC8 C2b [2] | Ki (μM) AC8 NT [4] | Nanobit: AC1-CaM IC50 (μM ± SEM) [5] | Compound | IC90 [1] | viability at 30 min [6] | fold selective for AC8 over AC1 in the NanoBiT assay ([3]; AC8/CaM vs AC1/CaM NanoBiT) | inhibition of AC1/CaM in the FP assay after fresh powder stocks were ordered [1]
9 | 12.7 µM | 6.2 µM |  | 6.3 µM |  | 3 µM | 2 and 2.1 | 2 and 2.1 | 20% |  |  |  | CCC(C)CC(C)CCCCCCCCC(=O)NC1CC(O)C(NCCN)NC(=O)C2C(O)CCN2C(=O)C(C(O)CCN)NC(=O)C(C(O)C(O)c2ccc(O)cc2)NC(=O)C2CC(O)CN2C(=O)C(C(C)O)NC1=O (centres unmarked) [Compound 5, Caspofungin Acetate] |  |  |  | 
10 | 20 µM | 33.5 µM | 34.6 ± 1.32 µM | 38 µM | 40 ± 1.15 µM | 4.7 µM | 7.1 | 8.0 | 38% |  |  |  | CN(C(=O)CN(CCO)CC(=O)N(C)C(C)(C)Cc1ccccc1)C(C)(C)Cc1ccccc1 [Compound 8, Oxetacaine] |  | 93.3% |  | 
11 | 58.2 µM |  |  |  | 84 ± 1.7 µM | 13.8 µM | AC1 Selective | AC1 Selective |  | n/i | n/i |  | CCC12CN3CC(CC)(CN(C1)C31C(=O)N(C)c3ccc(Br)cc31)C2=O (centres unmarked) [Compound 14] |  | 100% |  | 
12 | 75.4 µM |  |  |  |  | 17.8 µM | AC1 Selective | AC1 Selective | 53% | n/i | n/i | No Inhibition | CN1CCN(CCNC(=O)c2cc3c(=O)n(C)c(=O)n(C)c3s2)CC1 [Compound 17] |  |  |  | 
13 | 43.4 µM |  |  |  |  | 10.3 µM | AC1 Selective | AC1 Selective |  | n/i | n/i | No Inhibition | Cc1ccc(S(=O)(=O)Nc2cc(N3CCCS3(=O)=O)ccc2C)cc1 [Compound 19] |  |  |  | 
